{
  "source": "patent US11236044B2",
  "about": "“Selective inhibitors of 12(S)-lipoxygenase (12-LOX) and methods for use of the same” (THE REGENTS OF THE UNIVERSITY OF MICHIGAN, priority 2018, dated 2022)",
  "key": {"[1]": {"assay": "Pharmacokinetic study of the inhibitors in mice blood plasma (PO and IV)", "format": "in vivo", "details": "for concentration at 2 h / concentration at 4 h / concentration at 7 h: mouse, plasma, 30 mg/kg", "procedure": "Pharmacokinetic Study of the Inhibitors in Mice Blood Plasma\nThe blood plasma concentration of compounds A1, A2, and A4 in mice was determined following per os, oral compound administration (“PO”) and intravenous (“IV”) administration\nCalibration curve. The concentration range was evaluated from 2.5-5000 ng/ml for compound A2, 1-5000 ng/ml for compound A4, and 5-5000 ng/ml for compound A1. The curve was built with linear regression with weighing (1/X2). The linear regression analysis was performed by plotting the peak area ratio (y) against the concentration (x) in ng/mL.\nInstrument Conditions. The LC-MS and mass spectrometry conditions for the compounds tested are shown below.\nResults. The individual and average compound A1, A2, and A4 concentration-time data for IV and PO dosed groups are listed in Table 1, and graphically presented in FIG. 1."}, "[2]": {"system": "thrombus formation in cremaster arterioles", "assay": "Laser-induced cremaster arteriole thrombosis model", "format": "in vivo", "details": "WT mice, 3 mg/kg oral, twice a day for 2 days, versus PEG control; FIG. 4", "procedure": "C57BL/6 wild-type (WT) control mice were purchased from Jackson Laboratories (Bar Harbor, Me., USA) and housed in the research facility at the University of Michigan. Compound A1 was synthesized and specifically formulated in Polyethylene Glycol 300 (PEG 300) for oral gavage dosing in mice for in vivo thrombosis and hemostasis studies. For laser-induced cremaster arteriole thrombosis model, mice were treated with compound A1 (3 mg/kg) or with PEG 300 via oral administration 2 times per day for 2 days prior to intravital microscopy studies on the third day.\nAdult mice (10-12 weeks old) were anesthetized as described above and surgically prepared as described in detail, and a tracheal tube was inserted to facilitate breathing. The cremaster muscle was prepared and perfused with preheated bicarbonate-buffered saline throughout the experiment. DyLight 488-conjugated rat anti-mouse platelet GP1b8 antibody (0.1 μg/g; EMFRET Analytics) and Alexa Fluor 647-conjugated anti-fibrin (0.3 μg/g) or Alexa Flour 647 rat-anti mouse CD62P (3 μg/mouse) were administered by a jugular vein cannula prior to vascular injury. […] All captured images were analyzed for the change of fluorescent intensity over the course of thrombus formation after subtracting fluorescent background defined on an uninjured section of the vessel using the Slidebook program. […]"}, "[3]": {"system": "platelet accumulation in the lung (FcγRIIa-mediated platelet activation)", "assay": "Anti-GPIX-induced HITT model for lung thrombosis", "format": "in vivo, transgenic mice expressing the human FcγRIIa receptor", "details": "15 mg/kg oral gavage, four hours following HITT induction, versus PEG vehicle; FIG. 5", "procedure": "Adult transgenic mice (10-12 weeks old) expressing the human FcγRIIa receptor on their platelets were anesthetized as described above and were orally gavaged with 15 mg/kg of A1 or control vehicle 30-minutes prior to IV bolus injection of 0.75 mg/kg anti-GPIX to induce activation of the FcγRIIa receptor on the platelets to mimic heparin-induced thrombocytopenia and thrombosis (“HITT”) in the mouse. The anti-GPIX antibody was conjugated to DyLight 488 to visualize its binding to platelets and platelet accumulation in the lung. 4 hours post-anti-GPIX induction, the animals were sacrificed and the lungs were visualized using the Li—COR Odyssey imager.\nRepresentative images of platelet accumulation (green) in the mouse lungs from control (PEG vehicle) and A1-treated (15 mg/kg) mice are shown in FIG. 5"}, "[4]": {"details": "iv, IV 30 mg/kg, n=3 (outliers excluded), read-out: Concentration in Plasma, Mean"}, "[5]": {"details": "iv, IV 30 mg/kg, read-out: Concentration in Plasma, Mouse 1"}, "[6]": {"details": "iv, IV 30 mg/kg, read-out: Concentration in Plasma, Mouse 2"}, "[7]": {"details": "iv, IV 30 mg/kg, read-out: Concentration in Plasma, Mouse 3"}, "[8]": {"details": "po, PO 30 mg/kg, n=3 (outliers excluded), read-out: Concentration in Plasma, Mean"}, "[9]": {"details": "po, PO 30 mg/kg, read-out: Concentration in Plasma, Mouse 1"}, "[10]": {"details": "po, PO 30 mg/kg, read-out: Concentration in Plasma, Mouse 2"}, "[11]": {"details": "po, PO 30 mg/kg, read-out: Concentration in Plasma, Mouse 3"}},
  "note": "Read-outs that look alike come from different tables or passages of the source.",
  "data": [
    {"molecule": "COc1cccc(CNc2ccc(S(=O)(=O)Nc3cccc(Cl)c3)cc2)c1O", "note": "[Compound A1, N-(3-chlorophenyl)-4-((2-hydroxy-3-methoxybenzyl)amino) benzenesulfonamide]", "values": [
      {"measurement": "Concentration in Plasma, Mouse 2", "setting": "[1]; PO 30 mg/kg, 2 h", "result": "*899.2 ng/ml"},
      {"measurement": "concentration at 2 h", "setting": "[1]; iv, IV 30 mg/kg, 2 h, n=3 (outliers excluded), read-out: Concentration in Plasma, Mean", "result": 77.4, "unit": "ng/mL"},
      {"measurement": "concentration at 2 h", "setting": "[1]; iv, IV 30 mg/kg, 2 h, read-out: Concentration in Plasma, Mouse 1", "result": 69.6, "unit": "ng/mL"},
      {"measurement": "concentration at 2 h", "setting": "[1]; iv, IV 30 mg/kg, 2 h, read-out: Concentration in Plasma, Mouse 2", "result": 124, "unit": "ng/mL"},
      {"measurement": "concentration at 2 h", "setting": "[1]; iv, IV 30 mg/kg, 2 h, read-out: Concentration in Plasma, Mouse 3", "result": 38.8, "unit": "ng/mL"},
      {"measurement": "concentration at 4 h", "setting": "[1]; [4]", "result": 29.2, "unit": "ng/mL"},
      {"measurement": "concentration at 4 h", "setting": "[1]; [5]", "result": 46.4, "unit": "ng/mL"},
      {"measurement": "concentration at 4 h", "setting": "[1]; [6]", "result": 20.2, "unit": "ng/mL"},
      {"measurement": "concentration at 4 h", "setting": "[1]; [7]", "result": 20.9, "unit": "ng/mL"},
      {"measurement": "concentration at 7 h", "setting": "[1]; [4]", "result": 16.9, "unit": "ng/mL"},
      {"measurement": "concentration at 7 h", "setting": "[1]; [5]", "result": 36.5, "unit": "ng/mL"},
      {"measurement": "concentration at 7 h", "setting": "[1]; [6]", "result": 5.9, "unit": "ng/mL"},
      {"measurement": "concentration at 7 h", "setting": "[1]; [7]", "result": 8.3, "unit": "ng/mL"},
      {"measurement": "concentration at 2 h", "setting": "[1]; po, PO 30 mg/kg, 2 h, n=3 (outliers excluded), read-out: Concentration in Plasma, Mean", "result": 40.4, "unit": "ng/mL"},
      {"measurement": "concentration at 2 h", "setting": "[1]; po, PO 30 mg/kg, 2 h, read-out: Concentration in Plasma, Mouse 1", "result": 21, "unit": "ng/mL"},
      {"measurement": "concentration at 2 h", "setting": "[1]; po, PO 30 mg/kg, 2 h, read-out: Concentration in Plasma, Mouse 3", "result": 59.7, "unit": "ng/mL"},
      {"measurement": "concentration at 4 h", "setting": "[1]; [8]", "result": 52.9, "unit": "ng/mL"},
      {"measurement": "concentration at 4 h", "setting": "[1]; [9]", "result": 48.9, "unit": "ng/mL"},
      {"measurement": "concentration at 4 h", "setting": "[1]; [10]", "result": 89.8, "unit": "ng/mL"},
      {"measurement": "concentration at 4 h", "setting": "[1]; [11]", "result": 20, "unit": "ng/mL"},
      {"measurement": "concentration at 7 h", "setting": "[1]; [8]", "result": 15.2, "unit": "ng/mL"},
      {"measurement": "concentration at 7 h", "setting": "[1]; [9]", "result": 12.1, "unit": "ng/mL"},
      {"measurement": "concentration at 7 h", "setting": "[1]; [10]", "result": 24.1, "unit": "ng/mL"},
      {"measurement": "concentration at 7 h", "setting": "[1]; [11]", "result": 9.3, "unit": "ng/mL"},
      {"measurement": "thrombus formation (platelet accumulation and fibrin formation) in cremaster arterioles", "setting": "[2]", "result": "impairs thrombus formation"},
      {"measurement": "thrombocytopenia and thrombosis (platelet accumulation) in mouse lungs", "setting": "[3]", "result": "inhibit thrombocytopenia and thrombosis in mouse lungs"}
    ]}
  ]
}
